Measurements reported in patent US20040248275A1, “Engineered bacterial aggregates” (priority 2003, published 2004).

B1: Lentil lectin (protein, UniProt P02870 31-210; P02870 218-269, looked up)
Lectin beta chain: TETTSFSITKFSPDQKNLIFQGDGYTTKGKLTLTKAVKSTVGRALYSTPIHIWDRDTGNVANFVTSFTFVIDAPSSYNVADEFTFFIAPVDTKPQTGGGYLGVFNSKEYDKTSQTVAVEFDTFYNAAWDPSNKERHIGIDVNSIKSVNTKSWNLQNGERANVVIAFNAATNVLTVTLTYP
Lectin alpha chain: VTSYTLNEVVPLKDVVPEWVRIGFSATTGAEFAAHEVHSWSFHSELGGTSSS

Tests used:
Test in all cases: Lectin aggregation of bacterial cells (microtitre wells, semi-quantitative score)
Assay type in all cases: cell-based
Design in all cases: key: Where the addition of lectins did not cause the aggregation of cells, a score of “0” was assigned; Lectins that caused cellular-aggregation to give small flocs in a turbid suspension were given a score of “+”; A score of “++” was given to lectin-cell aggregate mixes that resulted in large aggregates seen by eye in a turbid suspension; Lectins that caused cellular aggregation to give easily visible aggregates in a clear solution were given a score of “+++”
Conditions in all cases: cells O.D. 0.5 at 650 nm
[1] = tested on: A. hydrophila
Description: (§1) Assay approach: Six lectins were chosen to discover their suitability for the aggregation of different species of bacteria. These were Concanavalin A, Lentil lectin, Pseudomonas aeruginosa lectin, peanut lectin, Limulus polyphemus lectin and wheat germ lectin.
(§2) The ability of the lectins to aggregate bacterial cells was studied by mixing cells at an O.D. of 0.5 at 650 nm with different lectins at different concentrations. The extent of aggregation was determined by a semi-quantitative approach. […] Lectins that caused cellular-aggregation to give small flocs in a turbid suspension were given a score of “+”. […] Lectins that caused cellular aggregation to give easily visible aggregates in a clear solution were given a score of “+++”.

[2] = tested on: C. freundii
Description: as §1, §2

[3] = tested on: E. asburiae
Description: as §1, §2

[4] = tested on: E. brevis
Description: as §1, §2

[5] = tested on: E. coli C600 (K12)
Description: as §1, §2

[6] = tested on: K. oxytoca
Description: as §1, §2

[7] = tested on: K. pneumoniae
Description: as §1, §2

[8] = tested on: P. putida
Description: as §1, §2

[9] = tested on: Pseudomonas sp. 2881
Description: as §1, §2

[10] = tested on: S. haemolyticus
Description: as §1, §2

[11] = tested on: S. paucimobilis
Description: as §1, §2

Molecule | extent of aggregation (score) ([1]; lectin 1 × 10^−1 mg/mL) | extent of aggregation (score) ([1]; lectin 1 × 10^−2 mg/mL) | extent of aggregation (score) ([1]; lectin 1 × 10^−3 mg/mL) | extent of aggregation (score) ([2]; lectin 1 × 10^−1 mg/mL) | extent of aggregation (score) ([2]; lectin 1 × 10^−2 mg/mL) | extent of aggregation (score) ([2]; lectin 1 × 10^−3 mg/mL) | extent of aggregation (score) ([3]; lectin 1 × 10^−1 mg/mL) | extent of aggregation (score) ([3]; lectin 1 × 10^−2 mg/mL) | extent of aggregation (score) ([3]; lectin 1 × 10^−3 mg/mL) | extent of aggregation (score) ([4]; lectin 1 × 10^−1 mg/mL) | extent of aggregation (score) ([4]; lectin 1 × 10^−2 mg/mL) | extent of aggregation (score) ([4]; lectin 1 × 10^−3 mg/mL) | extent of aggregation (score) ([5]; lectin 1 × 10^−1 mg/mL) | extent of aggregation (score) ([5]; lectin 1 × 10^−2 mg/mL) | extent of aggregation (score) ([5]; lectin 1 × 10^−3 mg/mL) | extent of aggregation (score) ([6]; lectin 1 × 10^−1 mg/mL) | extent of aggregation (score) ([6]; lectin 1 × 10^−2 mg/mL) | extent of aggregation (score) ([6]; lectin 1 × 10^−3 mg/mL) | extent of aggregation (score) ([7]; lectin 1 × 10^−1 mg/mL) | extent of aggregation (score) ([7]; lectin 1 × 10^−2 mg/mL) | further results
Concanavalin A | +++ | ++ | ++ | +++ | + | + | + | + | 0 | + | + | 0 | +++ | +++ | + | ++ | + | 0 | +++ | + | extent of aggregation (score) ([7]; lectin 1 × 10^−3 mg/mL): +; extent of aggregation (score) ([8]; lectin 1 × 10^−1 mg/mL): +++; extent of aggregation (score) ([8]; lectin 1 × 10^−2 mg/mL): ++; extent of aggregation (score) ([8]; lectin 1 × 10^−3 mg/mL): +; extent of aggregation (score) ([9]; lectin 1 × 10^−1 mg/mL): +++; extent of aggregation (score) ([9]; lectin 1 × 10^−2 mg/mL): ++; extent of aggregation (score) ([9]; lectin 1 × 10^−3 mg/mL): ++; extent of aggregation (score) ([10]; lectin 1 × 10^−1 mg/mL): +++; extent of aggregation (score) ([10]; lectin 1 × 10^−2 mg/mL): ++; extent of aggregation (score) ([10]; lectin 1 × 10^−3 mg/mL): +; extent of aggregation (score) ([11]; lectin 1 × 10^−1 mg/mL): +; extent of aggregation (score) ([11]; lectin 1 × 10^−2 mg/mL): ++; extent of aggregation (score) ([11]; lectin 1 × 10^−3 mg/mL): 0
B1 | +++ | ++ | ++ | +++ | + | + | 0 | 0 | 0 | + | 0 | 0 | +++ | ++ | + | ++ | + | 0 | ++ | + | extent of aggregation (score) ([7]; lectin 1 × 10^−3 mg/mL): +; extent of aggregation (score) ([8]; lectin 1 × 10^−1 mg/mL): +++; extent of aggregation (score) ([8]; lectin 1 × 10^−2 mg/mL): ++; extent of aggregation (score) ([8]; lectin 1 × 10^−3 mg/mL): +; extent of aggregation (score) ([9]; lectin 1 × 10^−1 mg/mL): +++; extent of aggregation (score) ([9]; lectin 1 × 10^−2 mg/mL): ++; extent of aggregation (score) ([9]; lectin 1 × 10^−3 mg/mL): +; extent of aggregation (score) ([10]; lectin 1 × 10^−1 mg/mL): +++; extent of aggregation (score) ([10]; lectin 1 × 10^−2 mg/mL): +; extent of aggregation (score) ([10]; lectin 1 × 10^−3 mg/mL): +; extent of aggregation (score) ([11]; lectin 1 × 10^−1 mg/mL): +; extent of aggregation (score) ([11]; lectin 1 × 10^−2 mg/mL): 0; extent of aggregation (score) ([11]; lectin 1 × 10^−3 mg/mL): 0
